Several values for one entry are separate records, joined by “and”; a condition that tells them apart may be missing. Equal entries are not always repeated. Entries after “also recorded” stand apart in the source; their conditions may differ. Where two headings read alike, the source gives them in different places.

For one test, the target named is T1, hCA II (Homo sapiens, UniProt P00918).
T1 construct: made in house
As to the kind of experiment: Stopped-flow CO2 hydrase assay. The conditions noted are these: mean from 3 assays, read-out: K i hCA II. In kind it is biochemical. Here is the method: (§1) An Applied Photophysics stopped‐flow instrument was used to assay the CA‐catalyzed CO2 hydration activity. […] The uncatalyzed rates were determined in the same manner and subtracted from the total observed rates. Stock solutions of the inhibitor (0.1 mM) were prepared in distilled−deionized water, and dilutions up to 0.01 nM were done thereafter with the assay buffer. Inhibitor and enzyme solutions were preincubated together for 15 min at room temperature before the assay, to allow for the formation of the E − I complex. The inhibition constants were obtained by nonlinear least‐squares methods using PRISM 3 and the Cheng–Prusoff equation as reported earlier and represent the mean from at least three different determinations. All CA isoforms were recombinant proteins obtained in house, as reported earlier.

In a further test the target is T2, hCA XII (Homo sapiens, UniProt O43570).
T2 construct: made in house
T2 sequence (O43570 25-354): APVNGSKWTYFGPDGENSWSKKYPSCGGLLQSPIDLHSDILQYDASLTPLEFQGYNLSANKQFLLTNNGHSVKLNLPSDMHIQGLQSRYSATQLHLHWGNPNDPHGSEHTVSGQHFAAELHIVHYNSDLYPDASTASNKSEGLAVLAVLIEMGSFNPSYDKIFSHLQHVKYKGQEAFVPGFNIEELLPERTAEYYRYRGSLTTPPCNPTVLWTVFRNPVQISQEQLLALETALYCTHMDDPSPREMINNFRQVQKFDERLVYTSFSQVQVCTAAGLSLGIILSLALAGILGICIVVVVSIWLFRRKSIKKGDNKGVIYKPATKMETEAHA
As to the kind of experiment: Stopped-flow CO2 hydrase assay. To be noted: mean from 3 assays, read-out: K i hCA XII. The class given is biochemical. As for the experimental part:
as §1

A further test has as its target T3, hCA I (Homo sapiens, UniProt P00915).
T3 construct: made in house
As to the kind of experiment: Stopped-flow CO2 hydrase assay. In kind it is biochemical. To be noted: mean from 3 assays, read-out: K i hCA I. Here is the method:
as §1

For another test, the target named is T4, hCA VA (Homo sapiens, UniProt P35218).
T4 construct: made in house
T4 sequence (P35218 39-305): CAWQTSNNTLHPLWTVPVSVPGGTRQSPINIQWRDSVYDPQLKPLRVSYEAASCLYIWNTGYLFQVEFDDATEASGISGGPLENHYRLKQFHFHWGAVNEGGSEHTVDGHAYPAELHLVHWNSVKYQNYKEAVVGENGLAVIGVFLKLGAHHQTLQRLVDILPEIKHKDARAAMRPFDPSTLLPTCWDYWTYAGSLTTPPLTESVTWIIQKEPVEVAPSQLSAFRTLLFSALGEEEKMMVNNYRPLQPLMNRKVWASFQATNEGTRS
As to the kind of experiment: Stopped-flow CO2 hydrase assay. The conditions noted are these: mean from 3 assays, read-out: K i hCA VA. The class given is biochemical. Here is the method:
as §1

A further test deals with T5, hCA IX (Homo sapiens, UniProt Q16790).
T5 construct: made in house
The class given is biochemical. The conditions noted are these: read-out: K i hCA IX. Here is the method:
as §1

For another test, the system named is hCA VB. As to the kind of experiment: Stopped-flow CO2 hydrase assay. The class given is biochemical, human. To be noted: K i VA / K i VB. As for the experimental part:
as §1

The next test has as its target T6, hCA VII (Homo sapiens, UniProt Q9Y2D0).
T6 construct: made in house
As to the kind of experiment: Stopped-flow CO2 hydrase assay (supplement table column). The class given is biochemical. Here is the method:
An Applied Photophysics stopped‐flow instrument was used to assay the CA‐catalyzed CO2 hydration activity. Phenol red (at a concentration of 0.2 mM) was used as an indicator, working at the absorbance maximum of 557 nm, with 20 mM Hepes (pH 7.4) as a buffer, and 20 mM Na2SO4 (to maintain constant ionic strength), following the initial rates of the CA‐catalyzed CO2 hydration reaction for a period of 10 − 100 s. The CO2 concentrations ranged from 1.7 to 17 mM for the determination of the kinetic parameters and inhibition constants. Enzyme concentrations ranged between 5 and 12 nM. For each inhibitor, at least six traces of the initial 5%−10% of the reaction were used to determine the initial velocity. The uncatalyzed rates were determined in the same manner and subtracted from the total observed rates. Stock solutions of the inhibitor (0.1 mM) were prepared in distilled−deionized water, and dilutions up to 0.01 nM were done thereafter with the assay buffer. Inhibitor and enzyme solutions were preincubated together for 15 min at room temperature before the assay, to allow for the formation of the E − I complex. The inhibition constants were obtained by nonlinear least‐squares methods using PRISM 3 and the Cheng–Prusoff equation as reported earlier and represent the mean from at least three different determinations. […]

In test [1] the target is T7, PL (pancreatic lipase) from porcine pancreas (Sus scrofa, UniProt P00591).
T7 sequence (P00591 1-450): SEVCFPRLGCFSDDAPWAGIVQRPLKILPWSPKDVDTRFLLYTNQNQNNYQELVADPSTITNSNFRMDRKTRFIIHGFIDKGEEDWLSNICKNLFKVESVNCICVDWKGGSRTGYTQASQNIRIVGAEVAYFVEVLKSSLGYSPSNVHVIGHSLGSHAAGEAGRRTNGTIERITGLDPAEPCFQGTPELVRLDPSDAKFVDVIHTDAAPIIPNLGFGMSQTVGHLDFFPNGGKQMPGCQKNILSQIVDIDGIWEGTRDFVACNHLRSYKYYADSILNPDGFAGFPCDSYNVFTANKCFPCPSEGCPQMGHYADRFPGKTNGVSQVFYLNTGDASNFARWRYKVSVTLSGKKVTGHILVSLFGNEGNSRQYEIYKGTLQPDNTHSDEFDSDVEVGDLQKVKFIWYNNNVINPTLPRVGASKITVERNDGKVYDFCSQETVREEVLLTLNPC
As to the kind of experiment: Pancreatic lipase inhibition, spectrophotometric p-nitrophenyl butyrate assay. To be noted: IC50 (µM) ± SD, p-nitrophenyl butyrate substrate, 37°C.
Experimental: The inhibition of PL (from porcine pancreas; see Supporting Information) was assessed using previously described spectrophotometric methods [15, 16, 30]. […] Thus, a lower value indicates higher inhibitory activity.
The reactions were incubated at 37°C for 10 min. Then, the substrate p‐nitrophenyl butyrate (3.2 mM in H2O/DMF 70:30, 10 μL) was pipetted, and the microplate was incubated at 37°C for 30 min under moderate shaking.

Test [2] deals with T7, PL (pancreatic lipase) from porcine pancreas. As to the kind of experiment: Kinetics of PL inhibition (Lineweaver-Burk plots). In kind it is biochemical. As for the experimental part:
The inhibition of PL by LTS0059529 on PL was also determined using Lineweaver–Burk graphs, which plot the reciprocal of initial velocity (v 0 ) against the reciprocal of substrate concentration.
The mode of inhibition of PL in the presence of LTS0059529 was determined by elaboration of UV‐vis spectroscopic data with Lineweaver–Burk plots. […] The competitive inhibition constants K i was calculated from the following equation. (2) v0=vmaxS/Km1+I/Ki+S, where ν 0 is the initial velocity in the absence and presence of the inhibitor, S and I are the concentrations of substrate and inhibitor, respectively; ν max is the maximum velocity, K m is the Michaelis–Menten constant. The replot of slopes (K m/ν max) from Lineweaver–Burk plot versus the inhibitor concentration afforded K i value as well.

Test [3] shares this target. To be noted: cited from earlier work.

T6 sequence (Q9Y2D0 34-317): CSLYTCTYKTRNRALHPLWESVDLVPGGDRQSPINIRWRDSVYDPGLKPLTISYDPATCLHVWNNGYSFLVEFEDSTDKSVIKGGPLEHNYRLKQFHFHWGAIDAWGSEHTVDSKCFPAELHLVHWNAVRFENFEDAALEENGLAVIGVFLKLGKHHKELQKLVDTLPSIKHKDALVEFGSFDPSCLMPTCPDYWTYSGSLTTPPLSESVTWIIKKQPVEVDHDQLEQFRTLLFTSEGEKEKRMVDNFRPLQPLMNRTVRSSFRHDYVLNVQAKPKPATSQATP
T3 sequence (P00915 whole entry): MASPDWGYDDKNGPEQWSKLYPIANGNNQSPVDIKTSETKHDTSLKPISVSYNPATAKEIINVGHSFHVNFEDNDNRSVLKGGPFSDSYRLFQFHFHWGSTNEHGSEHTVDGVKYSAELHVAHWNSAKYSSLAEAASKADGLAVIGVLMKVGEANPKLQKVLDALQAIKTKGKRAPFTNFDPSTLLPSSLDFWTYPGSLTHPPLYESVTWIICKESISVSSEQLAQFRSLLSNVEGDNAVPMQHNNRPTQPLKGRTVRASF

In the case of `O=C(/C=C/c1ccc(O)c2c1[C@H](C(=O)O)[C@@H](c1ccc(O)c(O)c1)O2)O[C@H](Cc1ccc(O)c(O)c1)C(=O)O` [LTS0059529, Lithospermic acid], the Ki on hCA II was above 100 µM; at hCA XII, 0.0048 ± 0.003 µM; on hCA I it was above 100 µM; at hCA VA, 0.69 ± 0.01 µM; at hCA IX, 0.31 ± 0.01 µM; on hCA VII, 0.6 ± 0.02 µM. For the same molecule, the Ki in test [2] (from slope of L-B plot lines versus inhibitor concentration) came to 33.1 ± 1.6 µM. For the same molecule, the “Inhibition ratio hCA VA versus hCA VB (VB more potently inhibited)” value in the test on hCA VB is recorded as 1.15 fold. The IC50 (as a rule, the midpoint of a concentration-inhibition curve) in test [1] was 5.4 µM and 5.45 µM. Moreover, the Inhibition mode entry in test [2] (Lineweaver-Burk plot) is “competitively; also recorded: Competitive”. Besides, in test [2] (not affected by the competitive inhibitor), the “v max of the reaction” value worked out at 0.091 ± 0.002 mM/min.
As for `CCCCCCCCCCC[C@@H](C[C@@H]1OC(=O)[C@H]1CCCCCC)OC(=O)[C@H](CC(C)C)NC=O` [ORL, Orlistat], in test [3], the Inhibition mode result is reported as “Competitive”.
